From patent US10442759B2, “1-sulfonamido-4-aryloxy compounds, and preparation method and medicinal application thereof” (priority 2016, dated 2019)

Columns and labels:
[1] = biological target: Keap1-Nrf2 protein-protein interaction (Keap1 Kelch domain protein, FITC-9mer Nrf2 polypeptide probe) (Homo sapiens (Human), UniProt Q14145); test: Fluorescence polarization-based Keap1-Nrf2 protein-protein interaction inhibition experiment (FP experiment); format: binding; details: for IC50: FP experiment, Keap1 Kelch domain, FITC-9mer Nrf2 probe
Protocol: Fluorescence Polarization-Based Keap1-Nrf2 Protein-Protein Interaction Inhibition Experiment (FP Experiment)
The instrument used in the FP experiment was the SpectraMax Multi-Mode Microplate Reader (Molecular Devices), and the excitation and emission wavelengths of the instrument were selected based on the corresponding fluorophore.
Before the test, the system was mixed well and incubated for 30 minutes at room temperature. […] In this study, the fluorescence intensities in horizontal and vertical directions (F∥ and F^⊥) were used to calculate the millipolarization value (mP), so as to reflect the changes of the polarized light.
where Pmax, Pmin, and Pobs represent the polarization value in the well containing Keap1 and the fluorescence probe, the polarization value in the well containing the fluorescence probe, and the polarization value of the well containing the inhibitor, respectively. The IC50 of the compounds was calculated from curve of the inhibition rate against the inhibitor concentration.

[2] = system: ARE (HepG2-ARE-C8 cells); test: ARE luciferase reporter assay; format: cell-based; details: for Luciferase reporter activity (fold of induction): HepG2-ARE-C8 cells, 12 hrs
Protocol: ARE Luciferase Reporter Assay
100 μL was added to a 96-well microtiter plate and incubated overnight.
(2) 2 times of the desired concentration of the test compound was formulated in a culture medium, and 100 μL was added respectively to the corresponding wells. tBHQ was used as a positive control and DMSO was used as a negative control. The 96-well microtiter plate added with the compound was incubated for 12 hrs at a constant temperature of 37° C., 5% CO2, and saturated humidity.
(3) The 5× lysis buffer in the Luciferase Assay Kit was formulated into a 1× lysis buffer for future use.
(4) The 96-well microtiter plate was removed, the medium was aspirated from the wells, the cells were washed with 1×PBS buffer, and the PBS buffer was aspirated off after the wash. […] After the lysis, the lysate was stood for 3-5 min, and 20 μL of the lysate supernatant was aspirated into a corresponding 96-well white plate.
(5) The 96-well white plate was positioned in the Thermo Scientific Luminoskan Ascent Chemiluminescence Micropore Reader. 100 μL of a luciferase assay reagent (obtained by uniformly mixing 1 bottle of luciferase assay substrate in the luciferase assay kit and 1 bottle of luciferase detection buffer) was added to each well before the test, and the plate was read within 1 min after the test reagent was added.

Keap1-Nrf2 protein-protein interaction (Keap1 Kelch domain protein, FITC-9mer Nrf2 polypeptide probe), sequence (Q14145 321-609): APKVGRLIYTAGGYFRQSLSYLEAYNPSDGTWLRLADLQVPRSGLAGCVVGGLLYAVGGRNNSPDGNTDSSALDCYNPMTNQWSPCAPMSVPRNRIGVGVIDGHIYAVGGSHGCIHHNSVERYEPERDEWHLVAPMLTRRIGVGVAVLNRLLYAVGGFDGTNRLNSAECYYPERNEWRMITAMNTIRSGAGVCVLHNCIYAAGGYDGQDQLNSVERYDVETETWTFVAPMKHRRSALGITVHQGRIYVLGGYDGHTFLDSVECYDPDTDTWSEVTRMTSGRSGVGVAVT

Row | Compound | IC50 [1] | Luciferase reporter activity (fold of induction) ([2]; 0.1 μmol/L) | Luciferase reporter activity (fold of induction) ([2]; 1 μmol/L) | Luciferase reporter activity (fold of induction) ([2]; 10 μmol/L) | FP activity compared with the positive control Nrf2 9mer polypeptide [1] | fold of induction compared with the positive control tBHQ ([2]; 10 μM)
1 | O=C(O)CN(c1ccc(OC(C(=O)O)c2ccccc2)c2ccccc12)S(=O)(=O)c1ccc([N+](=O)[O-])cc1 (stereo not shown) [Compound I-8, 2-(4-(N-(carboxymethyl)-4-nitrobenzenesulfonamido))naphthalen-1-oxy) benzeneacetate] | 4790 nM | 1.05 fold of induction | 1.23 fold of induction | 1.14 fold of induction |  | 
2 | Cc1cc(C)c(S(=O)(=O)N(Cc2nn[nH]n2)c2ccc(Oc3ccccc3CC(=O)O)c3ccccc23)c(C)c1 [Compound I-12, 2-(4-((N-(2H-tetrazol-5-yl)methyl)-2,4,6-trimethylbenzenesulfonamido)naphthalen-1-oxy)benzeneacetic acid] | 830 nM | 1.05 fold of induction | 1.19 fold of induction | 1.36 fold of induction |  | 
3 | O=C(O)CN(c1ccc(OC(C(=O)O)c2ccccc2)c2ccccc12)S(=O)(=O)c1ccc(F)cc1 (stereo not shown) [Compound I-9] | 5160 nM | 1.02 fold of induction | 1.13 fold of induction | 1.08 fold of induction |  | 
4 | COc1cc(OC)c(S(=O)(=O)N(CC(=O)O)c2ccc(OC(C(=O)O)c3ccccc3)c3ccccc23)c(OC)c1 (stereo not shown) [Compound I-6] | 640 nM | 1.01 fold of induction | 1.26 fold of induction | 1.09 fold of induction |  | 
5 | CCOc1ccc(C(Oc2ccc(N(CC(=O)O)S(=O)(=O)c3c(C)cc(C)cc3C)c3ccccc23)C(=O)O)cc1 (stereo not shown) [Compound I-15] | 84 nM | 1.33 fold of induction | 2.05 fold of induction | 3.92 fold of induction | better than the positive control | significantly higher than that of the positive control tBHQ
6 | COc1cc(OC)c(S(=O)(=O)N(CC(=O)O)c2ccc(OC(C(=O)O)c3ccc(OC(C)C)cc3)c3ccccc23)c(OC)c1 (stereo not shown) [Compound I-17] | 320 nM | 1.39 fold of induction | 1.39 fold of induction | 2.07 fold of induction |  | 
7 | CC(=O)Nc1ccc(C(Oc2ccc(N(CC(=O)O)S(=O)(=O)c3c(C)cc(C)cc3C)c3ccccc23)C(=O)O)cc1 (stereo not shown) [Compound I-16] | 90 nM | 1.21 fold of induction | 1.98 fold of induction | 3.23 fold of induction | better than the positive control | 
8 | 2-(4-(2,4,6-trimethylbenzenesulfonamido)naphthalen-1-oxy)benzeneacetic acid [Compound I-11] | 2430 nM | 1.02 fold of induction | 1.34 fold of induction | 1.14 fold of induction |  | 
9 | CC(=O)Nc1ccc(S(=O)(=O)N(CC(=O)O)c2ccc(Oc3ccccc3CC(=O)O)c3ccccc23)cc1 [Compound I-7] | 5230 nM | 0.97 fold of induction | 1.01 fold of induction | 1.03 fold of induction |  | 
10 | 2-(4-(2,4,6-trimethyl-N-(2-(hydroxylamino)-2-oxoethylbenzenesulfonamido) naphthalen-1-oxy)-benzeneacetic acid [Compound I-13] | 980 nM | 1.07 fold of induction | 1.16 fold of induction | 1.21 fold of induction |  | 
11 | CC(C)(C)c1ccc(S(=O)(=O)N(CC(=O)O)c2ccc(OC(C(=O)O)c3ccccc3)c3ccccc23)cc1 (stereo not shown) [Compound I-4] | 980 nM | 1.04 fold of induction | 1.12 fold of induction | 1.13 fold of induction |  | 
12 | O=C(O)Cc1ccccc1Oc1ccc(N(CC(=O)O)S(=O)(=O)c2ccc(C(F)(F)F)cc2)c2ccccc12 [Compound I-10] | 6660 nM | 0.92 fold of induction | 0.95 fold of induction | 1.10 fold of induction |  | 
13 | 3-(4-((N-carboxymethyl)-2,4,6-trimethylbenzenesulfonamido)naphthalen-1-yloxy)-(4-methoxyphenyl)propionic acid [Compound I-20] | 830 nM | 1.02 fold of induction | 1.13 fold of induction | 1.28 fold of induction |  | 
14 | CC(C)(C)c1cc(O)ccc1O [tBHQ, t-butylhydroquinone, reference compound] |  | 1.46 fold of induction | 1.38 fold of induction | 3.61 fold of induction |  | 
15 | COc1cc(OC)c(S(=O)(=O)N(CC(=O)O)c2ccc(OC(C(=O)O)c3ccc(F)cc3)c3ccccc23)c(OC)c1 (stereo not shown) [Compound I-18] | 310 nM | 1.03 fold of induction | 1.42 fold of induction | 1.57 fold of induction |  | 
16 | COc1ccc(C(Oc2ccc(N(Cc3nn[nH]n3)S(=O)(=O)c3c(C)cc(C)cc3C)c3ccccc23)C(=O)O)cc1 (stereo not shown) [Compound I-19, 2-(4-((N-(2H-tetrazol-5-yl)methyl)-2,4,6-trimethylbenzenesulfonamido)naphthalen-1-oxy)-(4-methoxyphenyl)acetic acid] | 140 nM | 0.97 fold of induction | 1.43 fold of induction | 2.58 fold of induction |  | 
17 | COc1ccc(S(=O)(=O)N(CC(=O)O)c2ccc(Oc3ccccc3CC(=O)O)c3ccccc23)cc1OC [Compound I-5] | 2300 nM | 0.92 fold of induction | 1.05 fold of induction | 1.10 fold of induction |  | 
18 | 2-(4-(2,4,6-trimethylbenzenesulfonamido)naphthalen-1-yl)oxy)-2-benzeneacetic acid [Compound I-2] | 1320 nM | 1.21 fold of induction | 1.10 fold of induction | 1.05 fold of induction |  | 
19 | COc1ccc(S(=O)(=O)N(CC(=O)O)c2ccc(Oc3ccccc3CC(=O)O)c3ccccc23)cc1 [Compound I-1] | 2280 nM | 0.98 fold of induction | 1.10 fold of induction | 1.07 fold of induction |  | 
20 | Cc1cc(C)c(S(=O)(=O)N(CC(=O)O)c2ccc(Oc3ccccc3CC(=O)O)c3ccccc23)c(C)c1 [Compound I-3] | 580 nM | 0.95 fold of induction | 1.03 fold of induction | 1.31 fold of induction |  | 
